pIC50: −log10 of the molar value.
Target: T1, Tyrosine-protein phosphatase non-receptor type 2 (Homo sapiens, UniProt P17706)
T1 sequence (P17706 whole entry): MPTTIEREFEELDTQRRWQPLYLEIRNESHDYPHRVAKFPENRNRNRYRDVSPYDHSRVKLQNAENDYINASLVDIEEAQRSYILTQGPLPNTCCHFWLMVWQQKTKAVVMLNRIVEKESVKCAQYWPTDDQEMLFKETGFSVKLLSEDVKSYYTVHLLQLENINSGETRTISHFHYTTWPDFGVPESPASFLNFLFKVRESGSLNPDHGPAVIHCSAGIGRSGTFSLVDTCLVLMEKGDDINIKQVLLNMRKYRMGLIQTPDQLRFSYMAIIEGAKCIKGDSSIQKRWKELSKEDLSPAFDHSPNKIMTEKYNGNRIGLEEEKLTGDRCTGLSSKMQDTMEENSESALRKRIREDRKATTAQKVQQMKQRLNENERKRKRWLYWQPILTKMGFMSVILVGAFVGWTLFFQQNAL
Test: In vitro enzymatic assay
Method: PTPN2 was produced in E. coli as a GST-TEV fusion and the GST was removed by TEV digestion, followed by additional purification to yield full-length PTPN2 (SEQ ID 1). PTPN2 enzyme was diluted in assay buffer (50 mM HEPES pH7.5, 0.2 mM EDTA, 1 mM DTT, 0.02% Brij-35, 0.02% BSA) to a final concentration of 0.5 nM and added to black 384-well non-binding plates (Greiner, 781900). Compounds were subsequently added using a Tecan D300e dispenser. Following a 10 min incubation at room temperature, DiFMUP substrate (ThermoFisher, D22065) was added to a final concentration of 100 μM. Plates were transferred to a SpectraMax plate reader (Molecular Devices) and fluorescence intensity was measured (ex 358, em 455) after a 30 min incubation at room temperature. […] A four-parameter curve fit was used to determine IC50 values from % inhibition data.

| Compound | pIC50 |
| --- | --- |
| O=C1CN(c2c(O)cc(CC3CCCCNC3)cc2F)S(=O)(=O)N1 (centres undefined) [US20250257059, Example 55] | 7.80 |
| O=C1CN(c2c(O)cc(CC3CCN(Cc4ccco4)C3)cc2F)S(=O)(=O)N1 (centres undefined) [US20250257059, Example 7] | 8.15 |
| COC1CCN(CCc2cc(O)c(N3CC(=O)NS3(=O)=O)c(F)c2)CC1 [US20250257059, Example 104] | 8.52 |
| O=C1CN(c2c(O)cc(CCN3CCC4(CCOCC4)C3)cc2F)S(=O)(=O)N1 [US20250257059, Example 113] | 8.70 |
| O=C1CN(c2c(O)cc(CCN3CC(C(F)(F)F)C3)cc2F)S(=O)(=O)N1 [US20250257059, Example 137] | 8.30 |
| O=C1CN(c2c(O)cc(CCN3CC[C@@H](C(F)(F)F)C3)cc2F)S(=O)(=O)N1 [US20250257059, Example 122] | 8.52 |
| CC1(C)CN(CCc2cc(O)c(N3CC(=O)NS3(=O)=O)c(F)c2)C1 [US20250257059, Example 127] | 8.70 |
| CC(C)[C@H]1CCN(CCc2cc(O)c(N3CC(=O)NS3(=O)=O)c(F)c2)C1 [US20250257059, Example 135] | 8.70 |

The remaining compounds from weak to strong by pIC50, led by results:

| pIC50 | Compound |
| --- | --- |
| 8.15 | O=C1CN(c2c(O)cc(CCN3CCOCC3)cc2F)S(=O)(=O)N1 [US20250257059, Example 89] |
| 8.15 | CC(C)CCCN1CCCCC1Cc1ccc(O)c(N2CC(=O)NS2(=O)=O)c1F (centres undefined) [US20250257059, Example 79] |
| 8.30 | O=C1CN(c2c(O)ccc(CC3CCCCN3CCC3CCCC3)c2F)S(=O)(=O)N1 (centres undefined) [US20250257059, Example 80] |
| 8.52 | O=C1CN(c2c(O)cc(CCN3CC(F)C3)cc2F)S(=O)(=O)N1 [US20250257059, Example 136] |
| 8.52 | O=C1CN(c2c(O)cc(CCN3CCCC(F)C3)cc2F)S(=O)(=O)N1 (centres undefined) [US20250257059, Example 97] |
| 8.70 | CC1CN(CCc2cc(O)c(N3CC(=O)NS3(=O)=O)c(F)c2)C1 [US20250257059, Example 140] |
| 8.70 | CC(C)(C)C1CCN(CCc2cc(O)c(N3CC(=O)NS3(=O)=O)c(F)c2)C1 (centres undefined) [US20250257059, Example 111] |
| 8.70 | O=C1CN(c2c(O)cc(CCN3CCC4(CCCC4)C3)cc2F)S(=O)(=O)N1 [US20250257059, Example 112] |
| 8.70 | O=C1CN(c2c(O)cc(CCN3Cc4ccccc4C3)cc2F)S(=O)(=O)N1 [US20250257059, Example 128] |
| 9.00 | COC[C@@H]1CCN(CCc2cc(O)c(N3CC(=O)NS3(=O)=O)c(F)c2)C1 [US20250257059, Example 117] |
| 9.00 | CC(C)[C@@H]1CCN(CCc2cc(O)c(N3CC(=O)NS3(=O)=O)c(F)c2)C1 [US20250257059, Example 134] |

Reference: BindingDB's records for patent US20250257059 (Nerio Therapeutics, 2025)
